These results are taken from ChEMBL document CHEMBL1201862, “PubChem BioAssay data set” (2004).

Among the test systems are 786-0; ACHN; CCRF-CEM; DMS-273; HOP-62; HT-29; IGROV-1; K562; M14; Malme-3M; NCI-H23; OVCAR-5; PC-3; RPMI-8226; SF-268; SF-295; SF-539; SK-MEL-28; SN12C; UO-31.
Assay in all cases: growth of human tumour cells (NCI), 48 h

Each structure is given as a SMILES string.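 Grown in 96-well plates, cells were treated for 48 hours with each compound at five concentrations. Insufficient inhibition: endpoint recorded as highest concentration tested. GI50 = concentration required for 50% inhibition of growth.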 Calls of active or inactive are those of the source. No stated cut-off is given here; in the data, active = GI50 up to about 1.1 µM and inactive = higher.

For `Clc1ccc2c(NCCCCCCNc3ccnc4cc(Cl)ccc34)ccnc2c1`, the GI50 with 786-0 was 1.97 µM (inactive); in the assay on ACHN, 3.67 µM (inactive); with CCRF-CEM, 2.34 µM (inactive); with DMS-273 it was 2.98 µM (inactive); in the assay on HOP-62, 4.72 µM (inactive); with HT-29 it was 1.99 µM (inactive). Further, the GI50 in the assay on IGROV-1 is 4.8 µM (inactive); in the assay on K562, 1.72 µM (inactive); with M14, 1.88 µM (inactive); in the assay on Malme-3M it was 12.8 µM (inactive); with NCI-H23, 12.3 µM (inactive); in the assay on OVCAR-5 it was 7.05 µM (inactive). For the same molecule, the GI50 in the assay on PC-3 is 3.65 µM (inactive); in the assay with RPMI-8226, 2.13 µM (inactive); in the assay with SF-268, 5.35 µM (inactive); with SF-295, 2.11 µM (inactive); in the assay with SF-539, 1.87 µM (inactive); in the assay on SK-MEL-28 it was 4.62 µM (inactive). Moreover, the GI50 with SN12C is 2.74 µM (inactive); in the assay on UO-31, 4.83 µM (inactive).

For `CCC1(O)C(=O)OCc2c1cc1n(c2=O)Cc2cc3cc4c(cc3nc2-1)OCO4` (stereo not given), the GI50 was < 0.01 µM (active) in the assay with 786-0; < 0.01 µM (active) in the assay on ACHN; < 0.01 µM (active) with CCRF-CEM; < 0.01 µM (active) with DMS-273; < 0.01 µM (active) with HOP-62; 0.0113 µM (active) in the assay on HT-29. Moreover, the GI50 in the assay with IGROV-1 is 0.0276 µM (active); with K562 it was 0.0142 µM (active); in the assay on M14 it was < 0.01 µM (active); in the assay with Malme-3M, 0.0164 µM (active); in the assay on NCI-H23 it was < 0.01 µM (active); with OVCAR-5 it was 0.0327 µM (active). In addition, the GI50 with PC-3 was 0.204 µM (active); with RPMI-8226, 0.0236 µM (active); in the assay with SF-268 it was < 0.0363 µM (active); in the assay on SF-295 it was < 0.01 µM (active); in the assay with SF-539, 0.0316 µM (active); with SK-MEL-28, 0.112 µM (active). For the same molecule, the GI50 in the assay on SN12C is < 0.01 µM (active); with UO-31, < 0.0111 µM (active).

In the case of `CCCCCCCCC(=O)NCCN(CCN)C(=O)CCCCCCCC`, the GI50 is 4.9 µM (inactive) in the assay on 786-0; 8.67 µM (inactive) in the assay with ACHN; 2.38 µM (inactive) in the assay with CCRF-CEM; 2.87 µM (inactive) with DMS-273; 15.3 µM (inactive) with HOP-62; 3.3 µM (inactive) with HT-29. For the same molecule, the GI50 in the assay on IGROV-1 is 7.46 µM (inactive); with K562, 2.18 µM (inactive); in the assay with M14 it was 8.81 µM (inactive); in the assay with Malme-3M, 17.9 µM (inactive); with NCI-H23, 17.3 µM (inactive); in the assay with OVCAR-5 it was 15.8 µM (inactive). Besides, the GI50 with PC-3 is 10.7 µM (inactive); in the assay on RPMI-8226 it was 2.49 µM (inactive); in the assay on SF-268 it was 6.87 µM (inactive); with SF-295, 4.99 µM (inactive); in the assay on SF-539 it was 5.7 µM (inactive); with SK-MEL-28, 14.9 µM (inactive). Besides, the values for the GI50 in the assay on SN12C and in the assay on UO-31 were 10.8 µM (inactive) and 12.7 µM (inactive), respectively.

Take `COc1cc(/C=C2\CCC/C(=C\c3ccc(O)c(OC)c3)C2=O)ccc1O` [CYCLOVALONE]: the GI50 is 2.07 µM (inactive) in the assay on 786-0; 2.06 µM (inactive) in the assay on ACHN; 0.525 µM (active) with CCRF-CEM; 1.51 µM (inactive) with DMS-273; 2.84 µM (inactive) in the assay with HOP-62; 7.6 µM (inactive) with HT-29. The GI50 in the assay with IGROV-1 was 2.77 µM (inactive); with K562, 3.22 µM (inactive); in the assay with M14, 2.25 µM (inactive); in the assay with Malme-3M, 2.17 µM (inactive); in the assay on NCI-H23, 6.75 µM (inactive); with OVCAR-5, 9.66 µM (inactive). The GI50 in the assay with PC-3 was 3.66 µM (inactive); in the assay on RPMI-8226 it was 1.2 µM (inactive); with SF-268, 2.39 µM (inactive); with SF-295 it was 2.92 µM (inactive); in the assay on SF-539, 2.04 µM (inactive); in the assay with SK-MEL-28 it was 3.41 µM (inactive). The GI50 in the assay on SN12C is 2.38 µM (inactive); in the assay on UO-31, 2.13 µM (inactive).

On to `Cc1nc2c(n1-c1ccc(Br)cc1)C(=O)c1ccccc1C2=O`, for which the GI50 was 5.16 µM (inactive) in the assay with 786-0; 9.06 µM (inactive) in the assay on ACHN; 3.16 µM (inactive) in the assay with CCRF-CEM; 4.49 µM (inactive) in the assay on DMS-273; 18.3 µM (inactive) in the assay on HOP-62; 6.68 µM (inactive) in the assay with HT-29. Further, the GI50 was 21.2 µM (inactive) in the assay on IGROV-1; 1.33 µM (inactive) in the assay on K562; 17.7 µM (inactive) in the assay with M14; 9.95 µM (inactive) in the assay with Malme-3M; 34 µM (inactive) in the assay with NCI-H23; > 100 µM (inactive) with OVCAR-5. The GI50 with PC-3 was 1.26 µM (inactive); in the assay with RPMI-8226, 1.43 µM (inactive); in the assay on SF-268, 5.21 µM (inactive); in the assay on SF-295 it was 5.45 µM (inactive); in the assay with SF-539, 7.66 µM (inactive); in the assay on SK-MEL-28, 12.9 µM (inactive). In addition, the results for the GI50 with SN12C and in the assay with UO-31 were 4.76 µM (inactive) and 7.76 µM (inactive), respectively.

Turning to `O=[N+]([O-])c1cc(I)cc(/C=N/NS(=O)(=O)c2ccc(Cl)cc2)c1O`, the GI50 in the assay with 786-0 is 21.1 µM (inactive); in the assay on ACHN it was 22.8 µM (inactive); with CCRF-CEM, 25.4 µM (inactive); with DMS-273, 19.8 µM (inactive); in the assay on HOP-62, 25.6 µM (inactive); in the assay on HT-29 it was 16.3 µM (inactive). In addition, the GI50 is 20.3 µM (inactive) with IGROV-1; 20 µM (inactive) in the assay with K562; 25.2 µM (inactive) in the assay on M14; 22 µM (inactive) in the assay on Malme-3M; 16.3 µM (inactive) in the assay on NCI-H23; 25 µM (inactive) with OVCAR-5. Besides, the GI50 with RPMI-8226 is 25.4 µM (inactive); with SF-268, 36.9 µM (inactive); in the assay on SF-295 it was 25.6 µM (inactive); in the assay on SF-539, 23 µM (inactive); in the assay with SK-MEL-28, 27.7 µM (inactive); in the assay with SN12C, 23.7 µM (inactive). The GI50 in the assay with UO-31 is 20.1 µM (inactive).

Take `COc1cc(Cc2nccc3cc(OC)c(OC)cc23)c(C(C)=O)cc1OC`: the GI50 was 65.2 µM (inactive) in the assay on 786-0; 153 µM (inactive) with ACHN; 14.9 µM (inactive) in the assay on DMS-273; 39.4 µM (inactive) with HOP-62; 199 µM (inactive) with HT-29; 173 µM (inactive) in the assay with IGROV-1. Besides, the GI50 was 187 µM (inactive) in the assay with M14; 19.7 µM (inactive) in the assay on Malme-3M; 124 µM (inactive) in the assay on NCI-H23; > 300 µM (inactive) in the assay on OVCAR-5; > 100 µM (inactive) in the assay on PC-3; 1.56 µM (inactive) in the assay with SF-268. For the same molecule, the GI50 is > 300 µM (inactive) in the assay on SF-295, > 94.8 µM (inactive) with SF-539, 1.76 µM (inactive) in the assay with SN12C and > 139 µM (inactive) in the assay on UO-31.
